# Test results from US8258114B2, “Modulation of glucose-6-phosphatase translocase expression” (Isis Pharmaceuticals, Inc., priority 2004, dated 2012).
# Legend:
# db/db mice = test: Oral glucose tolerance test in db/db mice (Table 10); assay type: in vivo, mouse
# Protocol: (§1) The mice described in Example 11 were evaluated for performance on glucose tolerance tests after the 6th dose of saline or antisense oligonucleotides. Through measurement of glucose levels following the administration of a bolus of glucose, tolerance tests assess the physiological response to a glucose challenge.
# (§2) Oral glucose tolerance tests (OGTT) were performed during week 3 of treatment with saline, ISIS 116847 (targeted to PTEN, SEQ ID NO: 143), ISIS 149008 (SEQ ID NO: 141), ISIS 148985 (SEQ ID NO: 118), or ISIS 141923 (SEQ ID NO: 144). To provide a baseline glucose level, fasted blood glucose levels were measured before the challenge. Glucose was administered by oral gavage via an 18 g gavage needle at a dose of 1 g/kg. Plasma glucose levels were measured for 30, 60, 90 and 120 minutes post-challenge using an Ascencia Glucometer Elite XL (Bayer, Tarrytown, N.Y.).
# The results are presented in Table 10 as the average plasma glucose level (in mg/dL) per time point from each treatment group (n=7).
# [1] = mouse, in vivo, sc, 25 mg/kg
# Protocol: Seven-week old male C57B1/6J-Lepr db/db mice (Jackson Laboratory, Bar Harbor, Me.) were fed a diet with a fat content of about 14% and were subcutaneously injected with one or more of the oligomeric compounds of the invention or a control compound at a dose of 25 mg/kg two times per week. Glucose-6-phosphatase translocase antisense oligonucleotides used were ISIS 148985 (SEQ ID NO: 118) and ISIS 149008 (SEQ ID NO: 141). ISIS 116847 (SEQ ID NO: 143), targeted to mouse PTEN, was used as a positive control. The scrambled control oligonucleotide ISIS 141923 ([…], incorporated herein as SEQ ID NO: 144) served as a negative control along with saline-injected animals. ISIS 141923 and ISIS 116847 are chimeric oligonucleotides (“gapmers”) 20 nucleotides in length, composed of a central “gap” region consisting of 10 2′-deoxynucleotides, which is flanked on both sides (5′ and 3′) by five-nucleotide “wings”. The wings are composed of 2′-O-(2-methoxyethyl) nucleotides, also known as 2′-MOE nucleotides. The internucleoside (backbone) linkages are phosphorothioate throughout the oligonucleotide. All cytidine residues are 5-methylcytidines.
# Patients with the human glycogen storage disease type 1b have mutations in the glucose-6-phosphatase translocase gene. Because one manifestation of these mutations is a defect in hepatic glycogen […] leading to glycogen accumulation in the liver, the db/db mice were further evaluated at the end of the treatment period for liver glycogen stores. Tissue glycogen was measured using the Glucose Trinder Reagent (Sigma-Aldrich, St. Louis, Mo.). Results are presented as the average level from 5 animals per treatment. Glycogen levels of mice treated with saline alone were approximately 46 mg/g of tissue. Levels in mice treated with the positive control antisense compound ISIS 116847 had decreased levels of approximately 30 mg/g. Mice treated with the scrambled control compound ISIS 141923 had levels more similar to saline control of approximately 39 mg/g. Mice treated with ISIS 149008 or 148985, the antisense inhibitors of glucose-6-phosphatase translocase, had glycogen levels of approximately 38 mg/g and 37 mg/g, respectively.
# ob/ob mice [2] = test: Fed and fasted plasma glucose in ob/ob mice; assay type: in vivo, mouse; conditions: 25 mg/kg s.c. twice weekly; for fasted plasma glucose: week 3, overnight fast, saline 297
# Protocol: Seven-week old male C57B1/6J-Lep ob/ob mice (Jackson Laboratory, Bar Harbor, Me.) were fed a diet with a fat content of about 22% and were subcutaneously injected with oligonucleotides at a dose of 25 mg/kg two times per week. A total of eight doses were administered. Glucose-6-phosphatase translocase antisense oligonucleotides used were ISIS 148985 (SEQ ID NO: 118) and ISIS 149008 (SEQ ID NO: 141). ISIS 116847 ([…]; incorporated herein as SEQ ID NO: 143), targeted to mouse PTEN, was used as a positive control. Saline-injected animals served as negative controls. Animals were sacrificed 48 hours after the last dose of oligonucleotide was administered, and liver triglycerides, liver glycogen, and target reduction in liver were measured.
# The effects of target inhibition on glucose metabolism were evaluated in the ob/ob mice treated as described above. Routine clinical analyzer instruments (Olympus Clinical Analyzer, Melville, N.Y.) were used to measure plasma glucose. Plasma glucose was measured prior to antisense oligonucleotide treatment (week 0) and during the second and fourth week of treatment. Fasted glucose measurements were made during week 3 after an overnight (about 14 hours) fast. Data are presented as the average from seven animals per treatment group.
# ob/ob mice [3] = test: Oral glucose tolerance test in ob/ob mice (Table 6); assay type: in vivo, mouse; conditions: 25 mg/kg twice weekly; for plasma glucose, OGTT: after 6th dose
# Protocol: as §1, with “7” for “11”
# as §2, with “during the third” for “during”, “week” for “week 3”, “ISIS” for “ISIS 149008 (SEQ ID NO: 141), ISIS”, “149008” for “141923”, “141).” for “144).”
# The results are presented in Table 6 as the average result (plasma glucose in mg/dL) from each treatment group (n=7). Saline-treated mice served as the control to which glucose levels were compared.
# [4] = 25 mg/kg twice weekly, week 3, 0 min post-glucose challenge (fasted)
# [5] = 25 mg/kg twice weekly, week 3, 30 min
# [6] = 25 mg/kg twice weekly, week 3, 60 min
# [7] = 25 mg/kg twice weekly, week 3, 90 min
# [8] = 25 mg/kg twice weekly, week 3, 120 min
# [9] = week 0 (prior to treatment), saline 339
# [10] = 0 min post-glucose challenge (fasted)
sequence,measurement,setting,value
"CCTTCCCTGAAGGTTCCTCC (chemistry not given here) [ISIS 141923, scrambled control oligonucleotide, negative control, reference compound]","plasma glucose, OGTT",db/db mice; [4],284 mg/dL
same,"plasma glucose, OGTT",db/db mice; [5],522 mg/dL
same,"plasma glucose, OGTT",db/db mice; [6],445 mg/dL
same,"plasma glucose, OGTT",db/db mice; [7],338 mg/dL
same,"plasma glucose, OGTT",db/db mice; [8],339 mg/dL
same,Liver glycogen levels,[1],approximately 39 mg/g
"CTGCTAGCCTCTGGATTTGA (chemistry not given here) [ISIS 116847, positive control oligonucleotide targeted to mouse PTEN, reference compound]",fed plasma glucose,ob/ob mice [2]; [9],approximately 339 mg/dL
same,fed plasma glucose,"ob/ob mice [2]; week 2, saline 401",~230 mg/dL
same,fasted plasma glucose,ob/ob mice [2],approximately 286 mg/dL
same,fed plasma glucose,"ob/ob mice [2]; week 4, saline 372",~188 mg/dL
same,"plasma glucose, OGTT",ob/ob mice [3]; [10],286 mg/dL
same,"plasma glucose, OGTT",ob/ob mice [3]; 30 min post-glucose challenge,290 mg/dL
same,"plasma glucose, OGTT",ob/ob mice [3]; 60 min post-glucose challenge,238 mg/dL
same,"plasma glucose, OGTT",ob/ob mice [3]; 90 min post-glucose challenge,229 mg/dL
same,"plasma glucose, OGTT",ob/ob mice [3]; 120 min post-glucose challenge,194 mg/dL
same,"plasma glucose, OGTT",db/db mice; [4],181 mg/dL
same,"plasma glucose, OGTT",db/db mice; [5],441 mg/dL
same,"plasma glucose, OGTT",db/db mice; [6],367 mg/dL
same,"plasma glucose, OGTT",db/db mice; [7],305 mg/dL
same,"plasma glucose, OGTT",db/db mice; [8],286 mg/dL
same,Liver glycogen levels,[1],approximately 30 mg/g
GCTCCATAGCGAGGACTCGA (chemistry not given here) [ISIS 148985],fed plasma glucose,ob/ob mice [2]; [9],approximately 348 mg/dL
same,fed plasma glucose,"ob/ob mice [2]; week 2, saline 401",~315 mg/dL
same,fasted plasma glucose,ob/ob mice [2],approximately 293 mg/dL
same,fed plasma glucose,"ob/ob mice [2]; week 4, saline 372",~241 mg/dL
same,"plasma glucose, OGTT",ob/ob mice [3]; [10],293 mg/dL
same,"plasma glucose, OGTT",ob/ob mice [3]; 30 min post-glucose challenge,489 mg/dL
same,"plasma glucose, OGTT",ob/ob mice [3]; 60 min post-glucose challenge,433 mg/dL
same,"plasma glucose, OGTT",ob/ob mice [3]; 90 min post-glucose challenge,331 mg/dL
same,"plasma glucose, OGTT",ob/ob mice [3]; 120 min post-glucose challenge,305 mg/dL
same,"plasma glucose, OGTT",db/db mice; [4],230 mg/dL
same,"plasma glucose, OGTT",db/db mice; [5],494 mg/dL
same,"plasma glucose, OGTT",db/db mice; [6],445 mg/dL
same,"plasma glucose, OGTT",db/db mice; [7],335 mg/dL
same,"plasma glucose, OGTT",db/db mice; [8],355 mg/dL
same,Liver glycogen levels,[1],~37 mg/g
TATACAAGTCGGTTTGCCCT (chemistry not given here) [ISIS 149008],fed plasma glucose,ob/ob mice [2]; [9],approximately 344 mg/dL
same,fed plasma glucose,"ob/ob mice [2]; week 2, saline 401",~249 mg/dL
same,fasted plasma glucose,ob/ob mice [2],approximately 237 mg/dL
same,fed plasma glucose,"ob/ob mice [2]; week 4, saline 372",~153 mg/dL
same,"plasma glucose, OGTT",ob/ob mice [3]; [10],237 mg/dL
same,"plasma glucose, OGTT",ob/ob mice [3]; 30 min post-glucose challenge,372 mg/dL
same,"plasma glucose, OGTT",ob/ob mice [3]; 60 min post-glucose challenge,276 mg/dL
same,"plasma glucose, OGTT",ob/ob mice [3]; 90 min post-glucose challenge,238 mg/dL
same,"plasma glucose, OGTT",ob/ob mice [3]; 120 min post-glucose challenge,214 mg/dL
same,glucose tolerance (in words),ob/ob mice [3]; OGTT,improved glucose tolerance
same,"plasma glucose, OGTT","db/db mice; 6 mg/kg twice weekly, week 3, 0 min (fasted)",204 mg/dL
same,"plasma glucose, OGTT","db/db mice; 6 mg/kg twice weekly, week 3, 30 min",518 mg/dL
same,"plasma glucose, OGTT","db/db mice; 6 mg/kg twice weekly, week 3, 60 min",468 mg/dL
same,"plasma glucose, OGTT","db/db mice; 6 mg/kg twice weekly, week 3, 90 min",377 mg/dL
same,"plasma glucose, OGTT","db/db mice; 6 mg/kg twice weekly, week 3, 120 min",330 mg/dL
same,"plasma glucose, OGTT","db/db mice; 12.5 mg/kg twice weekly, week 3, 0 min (fasted)",152 mg/dL
same,"plasma glucose, OGTT","db/db mice; 12.5 mg/kg twice weekly, week 3, 30 min",529 mg/dL
same,"plasma glucose, OGTT","db/db mice; 12.5 mg/kg twice weekly, week 3, 60 min",427 mg/dL
same,"plasma glucose, OGTT","db/db mice; 12.5 mg/kg twice weekly, week 3, 90 min",348 mg/dL
same,"plasma glucose, OGTT","db/db mice; 12.5 mg/kg twice weekly, week 3, 120 min",329 mg/dL
same,area under the curve (AUC) of OGTT glucose values compared to saline (in words),db/db mice; 25 mg/kg,significantly reduced the AUC
same,"plasma glucose, OGTT",db/db mice; [4],227 mg/dL
same,"plasma glucose, OGTT",db/db mice; [5],462 mg/dL
same,"plasma glucose, OGTT",db/db mice; [6],326 mg/dL
same,"plasma glucose, OGTT",db/db mice; [7],272 mg/dL
same,"plasma glucose, OGTT",db/db mice; [8],231 mg/dL
same,glucose tolerance (in words),db/db mice; 6.25 to 25 mg/kg,dose-dependent improvement in glucose tolerance
same,Liver glycogen levels,[1],approximately 38 mg/g
